Where “and” joins values, the source holds several entries; their conditions need not be identical. Equal values may be shown once.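 These data come from cells grown in 96-well plates and exposed to compound for 48 hours at five concentrations. GI50 is the concentration that inhibits growth by half. The concentration for full growth arrest is given as TGI.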
Columns and labels:
Experiment in all cases: NCI anticancer screen, dose series, 48 h
SK-MEL-5 melanoma = tested on: SK-MEL-5 melanoma
OVCAR-8 ovarian = tested on: OVCAR-8 ovarian
A498 renal = tested on: A498 renal
CCRF-CEM leukemia = tested on: CCRF-CEM leukemia
M14 melanoma = tested on: M14 melanoma
BT-549 breast = tested on: BT-549 breast
SW-620 colon = tested on: SW-620 colon
PC-3 prostate = tested on: PC-3 prostate
CAKI-1 renal = tested on: CAKI-1 renal
NCI/ADR-RES ovarian = tested on: NCI/ADR-RES ovarian

SMILES | GI50 (SK-MEL-5 melanoma) | TGI (SK-MEL-5 melanoma) | GI50 (OVCAR-8 ovarian) | TGI (OVCAR-8 ovarian) | GI50 (A498 renal) | TGI (A498 renal) | GI50 (CCRF-CEM leukemia) | TGI (CCRF-CEM leukemia) | GI50 (M14 melanoma) | TGI (M14 melanoma) | GI50 (BT-549 breast) | TGI (BT-549 breast) | GI50 (SW-620 colon) | TGI (SW-620 colon) | GI50 (PC-3 prostate) | TGI (PC-3 prostate) | GI50 (CAKI-1 renal) | TGI (CAKI-1 renal) | GI50 (NCI/ADR-RES ovarian) | TGI (NCI/ADR-RES ovarian)
CN(C)c1ccc(/C=C\c2cccc[n+]2C)cc1 | 2.99 µM | 11.6 µM | 4.13 µM | > 100 µM | 2.53 µM | 33.7 µM | 4.54 µM | > 100 µM | 10.7 µM | > 100 µM | 2.76 µM | 79.8 µM | 3.57 µM | > 100 µM | 3.04 µM | > 100 µM | 3.8 µM | > 100 µM | > 100 µM | > 100 µM
C=CC(=O)N1CCN(c2ccc3cccc(NC(=O)c4cnc(C)cn4)c3n2)CC1 | 4.42 µM | 16.9 µM | 3.46 µM | > 100 µM | 0.388 µM | 4.19 µM | 2.08 µM | 8.29 µM | 3.05 µM | 21.3 µM | 2.31 µM | 21.6 µM | 4.85 µM | 34.9 µM | 2.86 µM | 26.5 µM | 0.555 µM | 11.5 µM | 3.19 µM | > 100 µM
O=[N+]([O-])c1cccc(-c2nc3sccn3c2-c2ccnc(NCCCNS(=O)(=O)c3cccc(F)c3)n2)c1 | 0.824 µM | 2.1 µM | 1.89 µM | 17.7 µM | 1.56 µM | 30.5 µM | 1.3 µM | > 100 µM | 2.82 µM | 12 µM | 2.18 µM | 11.9 µM | 4.12 µM | > 100 µM | 1.37 µM | 6.62 µM | 2.33 µM | 14.1 µM | 1.72 µM | 6.49 µM
CC(=O)NC1=C(OS(=O)(=O)c2ccc(C)cc2)CN(C)C1=O | – | 18.4 µM | – | 20.3 µM | – | 18 µM | – | 4.28 µM | – | 20 µM | – | 12 µM | – | > 37.3 µM | – | 10.1 µM | – | 14 µM | – | 44.9 µM
O=C(O)C/C=C/CC(=O)O | – | > 100 µM | – | > 100 µM | – | > 100 µM | – | > 100 µM | – | > 100 µM | – | > 100 µM | – | > 100 µM | – | > 100 µM | – | > 100 µM | – | > 100 µM
CC(C)(C)c1ccc(OCCCCCCN2CCNCC2)cc1 | 1.87 µM | 3.49 µM | 14.6 µM | 33.5 µM | 9.44 µM | 23.1 µM | 2.88 µM | 12 µM | 3.22 µM | 13.5 µM | 10.5 µM | 27.1 µM | 2.14 µM | 5.19 µM | 8.28 µM | 24.4 µM | 4.72 µM | 17 µM | 14.3 µM | 33.7 µM
Cc1ccc(C2=NOC3=c4ccccc4=CSC3=C2c2ccc([N+](=O)[O-])cc2)cc1 | 11.4 µM | 37.6 µM | 6.22 µM | 40.5 µM | 10.8 µM | 26.9 µM | 39.3 µM | > 100 µM | 18.6 µM | > 100 µM | 19.1 µM | 46.2 µM | 62.3 µM | > 100 µM | 14.3 µM | 65.3 µM | 16.8 µM | 46.8 µM | 31.4 µM | > 100 µM
CC(C)(C)c1n[nH]c(=S)n(/N=C/c2ccc(F)c(Oc3ccccc3)c2)c1=O | 19.9 µM | 42.4 µM | 25.6 µM | > 100 µM | 27.8 µM | 69.7 µM | 32.7 µM | > 100 µM | 42 µM | > 100 µM | 34.5 µM | 94.5 µM | 34.7 µM | > 100 µM | 38.6 µM | > 100 µM | 28.5 µM | 68.9 µM | 35.1 µM | > 100 µM
Cc1ccc(C(=O)Nc2cccc(C(F)(F)F)c2)cc1Nc1nc(-c2cccnc2)nc2c1cnn2C | 1.74 µM and 1.24 µM | 4.06 µM and 2.96 µM | 3 µM and 2.34 µM | 39.7 µM and > 10 µM | 1.6 µM | 5.01 µM | 3.02 µM and 2.44 µM | > 100 µM | 1.05 µM and 0.442 µM | 3.66 µM and 3.43 µM | 4.12 µM and 2.86 µM | 14.5 µM and 8.91 µM | 1.74 µM and 1.51 µM | 13.4 µM and > 10 µM | 3.05 µM and 2.65 µM | 11.1 µM and > 10 µM | 2.44 µM and 1.33 µM | 11.8 µM and 3.35 µM | 2.19 µM and 1.54 µM | 6.96 µM and 5.68 µM
C/C(=N\Nc1ccc2ccccc2n1)c1ccccn1 | 0.103 µM | 2.24 µM | < 0.0492 µM | 12.8 µM | 0.239 µM | 2.48 µM | – | 0.0284 µM | 0.0504 µM | 1.33 µM | 0.256 µM | 16.6 µM | – | 5.67 µM | – | 7.23 µM | – | 0.59 µM | 0.0653 µM | 7.19 µM
COc1cc2nc(N3CCCC3)nc(NCC3CCCCC3)c2cc1OC | 1.35 µM | 2.68 µM | 1.59 µM | 3.52 µM | 1.11 µM | 2.47 µM | 1.09 µM | 3.5 µM | 1.44 µM | 2.88 µM | 1.41 µM | 2.78 µM | 1.39 µM | 2.89 µM | 1.13 µM | 2.83 µM | 1.34 µM | 2.64 µM | 1.51 µM | 3.47 µM
COc1cccc(NC(=O)c2sc3nc4c(cc3c2N)CN(Cc2ccccc2)CC4)c1 | 2.15 µM | 31.9 µM | 4.45 µM | 85.2 µM | 3.82 µM | 24.4 µM | 29.5 µM | > 100 µM | 12.7 µM | 86.8 µM | 2.83 µM | 26.2 µM | 1.85 µM | 72.2 µM | 11.6 µM | 91.1 µM | 11.7 µM | > 100 µM | 2.4 µM | 33.3 µM
c1ccc2c(c1)c(NCCCCN1CCCCC1)cc1c3ccccc3c(NCCCCN3CCCCC3)cc21 | 15.1 µM | 31.4 µM | 21.2 µM | 47.2 µM | 13.6 µM | 32.9 µM | 13.4 µM | > 100 µM | – | – | 20.7 µM | 45.2 µM | 10.6 µM | > 100 µM | 13.4 µM | 78.5 µM | 21 µM | 46.1 µM | 16.6 µM | 38.4 µM
Cc1cc2c3ccc(C)[n+](C)c3ccc2n1C | 3.65 µM | 14.8 µM | 1.53 µM | 29.8 µM | 0.357 µM | 3.8 µM | – | – | 17.2 µM | > 100 µM | 2.27 µM | 13.1 µM | 2.15 µM | > 100 µM | 1.26 µM | 9.11 µM | 30.5 µM | > 100 µM | > 100 µM | > 100 µM
